Publication PMC4505086, “Azobenzene-based inhibitors of human carbonic anhydrase II” (Beilstein Journal of Organic Chemistry, 2015)

Biological target: T1, human carbonic anhydrase II (hCAII) (Homo sapiens, UniProt P00918)
T1 construct: made in house
Assay: colorimetric endpoint measurement of hCAII-catalyzed pNPA hydrolysis
Format: biochemical
Settings: for Ki: calculated from IC50 by Cheng–Prusoff equation, Km = 1092.5 µM for pNPA, [S] = 5.0 mM; for IC50: wild-type hCAII 500 nM, pNPA 5 mM, 50 mM Tris pH 7.4, 20–30 min in the dark, absorbance at 400 nm
Excerpt: In order to determine the half-maximal inhibitory concentrations (IC50) and the inhibitory constants (Ki) towards hCAII for our library, we used a colorimetric endpoint measurement of the catalyzed pNPA hydrolysis (Figure 1a). Usually, a dansyl competition assay is employed for this purpose. However, as this assay is fluorescence-based and azobenzenes can quench fluorescence, this might cause a distortion in the obtained data. Furthermore, irradiation with UV light (i.e., λ = 280 nm for tryptophan excitation) can result in azobenzene-cis-isomerization, which could lead to different binding characteristics. Therefore, we aimed at the endpoint absorbance system described herein.
5. hCAII purification, crystallization and assay
5.1. Purification and crystallization
Wild-type human Carbonic Anhydrase II (hCAII) was expressed and purified as […]
previously reported. […]
5.2. Determination of half-maximal inhibitory concentration (IC50)
Approximately 1.0 mg of hCAII was dissolved in 100 µL of 50 mM Tris (pH 7.4) and diluted to a final concentration of 500 nM (concentration was determined in duplicates by absorbance spectroscopy) and mixed with the appropriate amount of blocker. The enzyme-blocker solution was then pipetted into a 96-well plate (white, clear flat bottom) containing pNPA for a final concentration of 5 mM. This was added simultaneously with a multi-well-pipette. After 20–30 min of incubation in the dark, the absorbance was measured using a plate reader at λ = 400 nm. Obtained data was background substracted and divided by data points of non-inhibited hCAII in order to obtain relative activity. The data points were fitted sigmoidal (eq. 1) or using the Hill equation (eq. 2) using IgorPro […]
All experiments were performed at least in triplicates. […]
y = base + [max / (1 + exp[(xhalf – x)/rate)]] (eq. 1) y = base + (max – base)/(1 + (xhalf / x)rate) (eq. 2)
5.3. Determination of inhibitory constants (Ki)
Inhibitory constants were determined using the Cheng–Prussow equation (eq. 3) with the obtained half-maximal inibitory constants (IC50) and with substrate concentration [S]
The Michaelis–Menten constant Km was obtained for this assay system independently and […]

Row | Structure (SMILES) | Ki [µM] | IC50 [µM]
1 | NS(=O)(=O)c1ccc(/N=N/c2ccc(N3CCOCC3)cc2)cc1 [1c] | 0.0554 | 0.309
2 | NS(=O)(=O)c1ccc(/N=N/c2ccccc2)cc1 [1h] | 0.0448 | 0.25
3 | Cc1ccc(/N=N/c2ccc(S(N)(=O)=O)cc2)cc1 [1f] | 0.0651 | 0.363
4 | CCOC(=O)c1ccc(/N=N/c2ccc(S(N)(=O)=O)cc2)cc1 [1i, (E)-Ethyl 4-((4-sulfamoylphenyl)diazenyl)benzoate] | 0.0301 | 0.168
5 | [N-]=[N+]=Nc1ccc(/N=N/c2ccc(S(N)(=O)=O)cc2)cc1 [1e] | 0.0461 | 0.257

Second part, the compound after the results:

Row | Ki [µM] | IC50 [µM] | Structure (SMILES)
6 | 0.0286 | 0.159 | NS(=O)(=O)c1ccc(/N=N/c2ccc([N+](=O)[O-])cc2)cc1 [1g]
7 | 0.0297 | 0.166 | NS(=O)(=O)c1ccc(/N=N/c2ccc(O)cc2)cc1 [1a]
8 | 0.025 | 0.14 | CCN(CC)c1ccc(/N=N/c2ccc(S(N)(=O)=O)cc2)cc1 [1b]
